In the supplement of paper PMC10307832:

Assays:
Assay in all cases: relative viability (nuclei count vs DMSO), 5 days (fraction); higher = more cells survive
NCI-H3122 = system: NCI-H3122
How it was run: (§1)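 One day after seeding in 1536-well plates, lung cancer cell lines were dosed by pin tool. Dosing was either single-drug or a fixed anchor-drug dose plus five library-drug doses (not always all listed) in √10 steps. After 5 days, nuclei were stained in one fix-and-stain step and counted on 4× images, and relative viability is the nuclei count of treated wells over that of vehicle wells, given as the median of duplicate plates.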

NCI-H2405 = system: NCI-H2405
How it was run: as §1

NCI-H647 = system: NCI-H647
How it was run: as §1

PC-14 = system: PC-14
How it was run: as §1

HCC-15 = system: HCC-15
How it was run: as §1

NCI-H1793 = system: NCI-H1793
How it was run: as §1

EPLC-272H = system: EPLC-272H
How it was run: as §1

LOU-NH91 = system: LOU-NH91
How it was run: as §1

NCI-H322M = system: NCI-H322M
How it was run: as §1

H3255 = system: H3255
How it was run: as §1

NCI-H2023 = system: NCI-H2023
How it was run: as §1

COR-L23 = system: COR-L23
How it was run: as §1

NCI-H441 = system: NCI-H441
How it was run: as §1

201T = system: 201T
How it was run: as §1

UMC-11 = system: UMC-11
How it was run: as §1

NCI-H520 = system: NCI-H520
How it was run: as §1

NCI-H2347 = system: NCI-H2347
How it was run: as §1

NCI-H1734 = system: NCI-H1734
How it was run: as §1

SW 900 = system: SW 900
How it was run: as §1

NCI-H1650 = system: NCI-H1650
How it was run: as §1

NCI-H2170 = system: NCI-H2170
How it was run: as §1

COc1cc2nccc(Oc3ccc(NC(=O)Nc4cc(C)on4)c(Cl)c3)c2cc1OC [Tivozanib] + CC(=O)c1c(C)c2cnc(Nc3ccc(N4CCNCC4)cn3)nc2n(C2CCCC2)c1=O [Palbociclib] (partner 0.5 µM)
relative viability (NCI-H3122; first compound 0.005 µM): 0.164
relative viability (NCI-H3122; first compound 0.01581 µM): 0.207
relative viability (NCI-H3122; first compound 0.05 µM): 0.187
relative viability (NCI-H3122; first compound 0.1581 µM): 0.212
relative viability (NCI-H3122; first compound 0.5 µM): 0.184
relative viability (NCI-H2405; first compound 0.005 µM): 0.534
relative viability (NCI-H2405; first compound 0.01581 µM): 0.55
relative viability (NCI-H2405; first compound 0.05 µM): 0.528
relative viability (NCI-H2405; first compound 0.1581 µM): 0.527
relative viability (NCI-H2405; first compound 0.5 µM): 0.466
relative viability (NCI-H647; first compound 0.005 µM): 0.396
relative viability (NCI-H647; first compound 0.01581 µM): 0.391
relative viability (NCI-H647; first compound 0.05 µM): 0.3
relative viability (NCI-H647; first compound 0.1581 µM): 0.32
relative viability (NCI-H647; first compound 0.5 µM): 0.35
relative viability (PC-14; first compound 0.005 µM): 0.528
relative viability (PC-14; first compound 0.01581 µM): 0.538
relative viability (PC-14; first compound 0.05 µM): 0.549
relative viability (PC-14; first compound 0.1581 µM): 0.54
relative viability (PC-14; first compound 0.5 µM): 0.394
relative viability (HCC-15; first compound 0.005 µM): 0.689
relative viability (HCC-15; first compound 0.01581 µM): 0.768
relative viability (HCC-15; first compound 0.05 µM): 0.767
relative viability (HCC-15; first compound 0.1581 µM): 0.734
relative viability (HCC-15; first compound 0.5 µM): 0.672
relative viability (NCI-H1793; first compound 0.005 µM): 0.309
relative viability (NCI-H1793; first compound 0.01581 µM): 0.343
relative viability (NCI-H1793; first compound 0.05 µM): 0.354
relative viability (NCI-H1793; first compound 0.5 µM): 0.422
relative viability (EPLC-272H; first compound 0.005 µM): 0.268
relative viability (EPLC-272H; first compound 0.01581 µM): 0.303
relative viability (EPLC-272H; first compound 0.05 µM): 0.35
relative viability (EPLC-272H; first compound 0.1581 µM): 0.348
relative viability (EPLC-272H; first compound 0.5 µM): 0.282
relative viability (LOU-NH91; first compound 0.005 µM): 0.431
relative viability (LOU-NH91; first compound 0.01581 µM): 0.498
relative viability (LOU-NH91; first compound 0.05 µM): 0.513
relative viability (LOU-NH91; first compound 0.1581 µM): 0.549
relative viability (LOU-NH91; first compound 0.5 µM): 0.538
relative viability (NCI-H322M; first compound 0.005 µM): 0.467
relative viability (NCI-H322M; first compound 0.01581 µM): 0.478
relative viability (NCI-H322M; first compound 0.05 µM): 0.522
relative viability (NCI-H322M; first compound 0.1581 µM): 0.538
relative viability (NCI-H322M; first compound 0.5 µM): 0.513
relative viability (H3255; first compound 0.005 µM): 0.313
relative viability (H3255; first compound 0.01581 µM): 0.356
relative viability (H3255; first compound 0.05 µM): 0.294
relative viability (H3255; first compound 0.1581 µM): 0.334
relative viability (H3255; first compound 0.5 µM): 0.328
relative viability (NCI-H2023; first compound 0.005 µM): 0.371
relative viability (NCI-H2023; first compound 0.01581 µM): 0.447
relative viability (NCI-H2023; first compound 0.05 µM): 0.384
relative viability (NCI-H2023; first compound 0.1581 µM): 0.395
relative viability (NCI-H2023; first compound 0.5 µM): 0.451
relative viability (COR-L23; first compound 0.005 µM): 0.246
relative viability (COR-L23; first compound 0.01581 µM): 0.294
relative viability (COR-L23; first compound 0.05 µM): 0.319
relative viability (COR-L23; first compound 0.1581 µM): 0.282
relative viability (COR-L23; first compound 0.5 µM): 0.213
relative viability (NCI-H441; first compound 0.005 µM): 0.214
relative viability (NCI-H441; first compound 0.01581 µM): 0.262
relative viability (NCI-H441; first compound 0.05 µM): 0.248
relative viability (NCI-H441; first compound 0.1581 µM): 0.216
relative viability (NCI-H441; first compound 0.5 µM): 0.207
relative viability (201T; first compound 0.005 µM): 0.395
relative viability (201T; first compound 0.01581 µM): 0.39
relative viability (201T; first compound 0.05 µM): 0.366
relative viability (201T; first compound 0.1581 µM): 0.373
relative viability (201T; first compound 0.5 µM): 0.357
relative viability (UMC-11; first compound 0.005 µM): 0.288
relative viability (UMC-11; first compound 0.01581 µM): 0.327
relative viability (UMC-11; first compound 0.05 µM): 0.32
relative viability (UMC-11; first compound 0.1581 µM): 0.304
relative viability (UMC-11; first compound 0.5 µM): 0.307
relative viability (NCI-H520; first compound 0.005 µM): 0.231
relative viability (NCI-H520; first compound 0.01581 µM): 0.296
relative viability (NCI-H520; first compound 0.05 µM): 0.238
relative viability (NCI-H520; first compound 0.1581 µM): 0.19
relative viability (NCI-H520; first compound 0.5 µM): 0.231
relative viability (NCI-H2347; first compound 0.005 µM): 0.48
relative viability (NCI-H2347; first compound 0.01581 µM): 0.424
relative viability (NCI-H2347; first compound 0.05 µM): 0.462
relative viability (NCI-H2347; first compound 0.1581 µM): 0.478
relative viability (NCI-H2347; first compound 0.5 µM): 0.422
relative viability (NCI-H1734; first compound 0.005 µM): 0.313
relative viability (NCI-H1734; first compound 0.01581 µM): 0.34
relative viability (NCI-H1734; first compound 0.05 µM): 0.335
relative viability (NCI-H1734; first compound 0.1581 µM): 0.336
relative viability (NCI-H1734; first compound 0.5 µM): 0.345
relative viability (SW 900; first compound 0.005 µM): 0.519
relative viability (SW 900; first compound 0.01581 µM): 0.552
relative viability (SW 900; first compound 0.05 µM): 0.559
relative viability (SW 900; first compound 0.5 µM): 0.531
relative viability (NCI-H1650; first compound 0.005 µM): 0.328
relative viability (NCI-H1650; first compound 0.01581 µM): 0.304
relative viability (NCI-H1650; first compound 0.05 µM): 0.336
relative viability (NCI-H1650; first compound 0.1581 µM): 0.389
relative viability (NCI-H1650; first compound 0.5 µM): 0.319
relative viability (NCI-H2170; first compound 0.005 µM): 0.398
relative viability (NCI-H2170; first compound 0.01581 µM): 0.392
relative viability (NCI-H2170; first compound 0.05 µM): 0.414
relative viability (NCI-H2170; first compound 0.5 µM): 0.388
